# Results as given in ChEMBL document CHEMBL5620433, “Design and synthesis of new 1,2,3-triazoles derived from eugenol and analogues with in vitro and in vivo activity against Trypanosoma cruzi” (Eur J Med Chem, 2023).
# Biological target: Cruzipain (Trypanosoma cruzi) (UniProt P25779)
# Assay: Inhibition of recombinant Trypanosoma cruzi Cruzain using Z-FR-AMC as substrate at 100 uM preincubated with enzyme for 10 mins and measured for 5 mins by fluorescence based analysis
# Conditions: time 15.0 min
# Cruzipain (Trypanosoma cruzi), sequence (P25779 123-467 limits assumed): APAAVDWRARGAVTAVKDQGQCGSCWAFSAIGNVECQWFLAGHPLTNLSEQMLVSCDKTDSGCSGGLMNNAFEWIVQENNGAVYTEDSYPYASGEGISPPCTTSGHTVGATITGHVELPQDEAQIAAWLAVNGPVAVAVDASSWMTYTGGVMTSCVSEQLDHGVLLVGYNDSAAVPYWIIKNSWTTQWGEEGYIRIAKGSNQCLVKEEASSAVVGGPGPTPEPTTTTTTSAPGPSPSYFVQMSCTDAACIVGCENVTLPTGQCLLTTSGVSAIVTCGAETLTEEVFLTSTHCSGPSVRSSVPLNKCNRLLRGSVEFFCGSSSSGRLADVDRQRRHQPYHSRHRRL
row,SMILES,inhibition [%]
1,COc1ccccc1OCC(O)Cn1cc(COc2ccc(C(C)C)cc2)nn1 (racemic),7.2
2,CCCc1ccc(OCC(O)Cn2cc(COc3ccc(C(C)C)cc3)nn2)c(OC)c1 (racemic),7.2
3,C=CCc1ccc(OCC(O)Cn2cc(COc3ccccc3)nn2)c(OC)c1 (racemic),7.2

# Next, values leading:
row,inhibition [%],SMILES
1,7.2,CCCc1ccc(OCC(Cn2cc(-c3ccccc3)nn2)OC)c(OC)c1 (racemic)
2,7.2,COc1ccccc1OCC(O)Cn1cc(-c2ccccc2)nn1 (racemic)
3,7.2,COc1ccccc1OCC(O)Cn1cc(COc2ccc(Cl)cc2)nn1 (racemic)

# System: Trypanosoma cruzi
# Assay: Antitrypanosomal activity against epimastigote form of Trypanosoma cruzi Y assessed as inhibition of parasite proliferation incubated for 72 hrs by resazurin dye based analysis
# Assay type: functional, organism-based
# Conditions: not given
row,SMILES,IC50 [µM]
1,COc1ccccc1OCC(O)Cn1cc(COc2ccc(C(C)C)cc2)nn1 (racemic),64.3
2,CCCc1ccc(OCC(O)Cn2cc(COc3ccc(C(C)C)cc3)nn2)c(OC)c1 (racemic),41.1
3,C=CCc1ccc(OCC(O)Cn2cc(COc3ccccc3)nn2)c(OC)c1 (racemic),256

# The remaining molecules from weak to strong by IC50, led by results:
row,IC50 [µM],SMILES
1,198,CCCc1ccc(OCC(Cn2cc(-c3ccccc3)nn2)OC)c(OC)c1 (racemic)
2,126,COc1ccccc1OCC(O)Cn1cc(-c2ccccc2)nn1 (racemic)
3,121,COc1ccccc1OCC(O)Cn1cc(COc2ccc(Cl)cc2)nn1 (racemic)

# System: not listed separately
# Assay: Cytotoxicity against rat H9c2 cells assessed as reduction in cell viability measured after 72 hrs by resazurin due based analysis
# Assay type: toxicity
# Conditions: rat, H9c2 cells
row,SMILES,IC50 at 72 h [µM]
1,CCCc1ccc(OCC(O)Cn2cc(COc3ccc(C(C)C)cc3)nn2)c(OC)c1 (racemic),302
2,COc1ccccc1OCC(O)Cn1cc(COc2ccc(Cl)cc2)nn1 (racemic),380
3,CCCc1ccc(OCC(Cn2cc(-c3ccccc3)nn2)OC)c(OC)c1 (racemic),555
4,C=CCc1ccc(OCC(O)Cn2cc(COc3ccccc3)nn2)c(OC)c1 (racemic),410
5,COc1ccccc1OCC(O)Cn1cc(-c2ccccc2)nn1 (racemic),422

# System: not listed separately
# Assay: Selectivity index, ratio of CC50 for cytotoxicity against rat H9c2 cells to IC50 for antitrypanosomal activity against epimastigote form of Trypanosoma cruzi Y
# Assay type: toxicity, cell-based
# Conditions: read-out: Ratio IC50
row,SMILES,selectivity ratio
1,CCCc1ccc(OCC(O)Cn2cc(COc3ccc(C(C)C)cc3)nn2)c(OC)c1 (racemic),7.3
2,COc1ccccc1OCC(O)Cn1cc(COc2ccc(Cl)cc2)nn1 (racemic),3.1
3,CCCc1ccc(OCC(Cn2cc(-c3ccccc3)nn2)OC)c(OC)c1 (racemic),2.8
4,C=CCc1ccc(OCC(O)Cn2cc(COc3ccccc3)nn2)c(OC)c1 (racemic),1.6
5,COc1ccccc1OCC(O)Cn1cc(-c2ccccc2)nn1 (racemic),3.3

# Biological target: Cruzipain (Trypanosoma cruzi) (UniProt P25779)
# Assay: Inhibition of recombinant Trypanosoma cruzi Cruzain using Z-FR-AMC as substrate at 100 uM measured for 5 mins by fluorescence based analysis
# Conditions: not given
row,SMILES,inhibition [%]
1,COc1ccccc1OCC(O)Cn1cc(COc2ccc(C(C)C)cc2)nn1 (racemic),7.2
2,CCCc1ccc(OCC(O)Cn2cc(COc3ccc(C(C)C)cc3)nn2)c(OC)c1 (racemic),7.2
3,C=CCc1ccc(OCC(O)Cn2cc(COc3ccccc3)nn2)c(OC)c1 (racemic),7.2

# Second part, the molecule after the results:
row,inhibition [%],SMILES
1,7.2,CCCc1ccc(OCC(Cn2cc(-c3ccccc3)nn2)OC)c(OC)c1 (racemic)
2,7.2,COc1ccccc1OCC(O)Cn1cc(-c2ccccc2)nn1 (racemic)
3,7.2,COc1ccccc1OCC(O)Cn1cc(COc2ccc(Cl)cc2)nn1 (racemic)
